Measured values from patent publication US9290468B2, “Benzoheterocyclic compounds and use thereof” (SHANGHAI KECHOW PHARMA, INC., priority 2012, dated 2016).

Experiments:
HT29 cells = experiment: Cell growth inhibition assay (MTT), HT29 cells; type: cell-based; details: Homo sapiens, HT-29, 72 h
Procedure: (§1) When the HT29 cells reach their exponential phase of growth, 4×10^3 cells/well were plated into 96-well plates, the edge of plates were filled with sterility PBS, at the same time, filled three holds only with medium as blank group. • 2. The plates were cultured in a humidified 5% CO2 incubator at 37° C. for 24 h, and allowed to proliferate for reaching their exponential phase of growth. • 3. Samples were dissolved in DMSO (dimethyl sulfoxide), the concentration of Samples is 10 mmol/L, 1 mmol/L, 100 μmol/L, 10 μmol/L, 1 μmol/L, 0.1 μmol/L, and further diluted with cell culture medium. The final does concentration were 10 μmol/L, 1 μmol/L, 100 nmol/L, 10 nmol/L, 1 nmol/L, 0.1 nmol/L, 0 nmol/L (the control group). The final DMSO concentration used was 1‰ of total volume of medium in all treatments, including the control group. • Blank: medium • Control: the same dose of DMSO with experiment. Group, the DMSO was diluted with cell perfect culture medium. • Experiment: the cells were treated with the concentration of 10 μmol/L, 1 μmol/L, 100 nmol/L, 10 nmol/L, 1 nmol/L, 0.1 nmol/L. • 4. The plates were cultured in a humidified 5% CO2 incubator at 37° C. for 72 h. 20 μL of 3-(4,5-dimethylthiazol-2-yl)-2,5-diphenyltetrazolium bromide (MTT) reagent (5 mg/mL) in phosphate buffered serum (PBS) was added to each well. • 5. The plates were cultured in a humidified 5% CO2 incubator at 37° C. for 4 h. Subsequently, the solution was aspirated and 150 uL dimethyl sulfoxide was added to release the formed formazan crystals from the living cells mitochondria into the solution. • 6. After moderated shaking for 3 min, absorbance was measured at 490 nm using microplate reader. Methods 2 (A375) • 1. When the A375 cells reach their exponential phase of growth, 5×10^3 cells/well were plated into 96-well plates, the edge of plates were filled with sterility PBS, at the same time, filled three holds only with medium as blank group. • 2. The plates were cultured in a humidified 5% CO2 incubator at 37° C. for 24 h. Allowed to proliferate for reaching their exponential phase of growth. • 3. Samples were dissolved in DMSO (Dimethyl Sulfoxide), the concentration of Samples is 10 mmol/L, 1 mmol/L, 100 μmol/L, 10 μmol/L, 1 μmol/L, 0.1 μmol/L, and further diluted with cell culture medium. The final does concentration were 10 μmol/L, 1 μmol/L, 100 nmol/L, 10 nmol/L, 1 nmol/L, 0.1 nmol/L, 0 nmol/L (the control group). The final DMSO concentration used was 1‰ of total volume of medium in all treatments, including the control group. • Blank: medium • Control: the same dose of DMSO with experiment group, the DMSO was diluted with cell perfect culture medium • Experiment: the cells were treated with the concentration of 10 μmol/L, 1 μmol/L, 100 nmol/L, 10 nmol/L, 1 nmol/L, 0.1 nmol/L • 4. The plates were cultured in a humidified 5% CO2 incubator at 37° C. for 72 h. 20 μL of 3-(4,5-dimethylthiazol-2-yl)-2,5-diphenyltetrazolium bromide (MTT) reagent (5 mg/mL) in phosphate buffered serum (PBS) was added to each well. • 5. The plates were cultured in a humidified 5% CO2 incubator at 37° C. for 4 h. Subsequently, the solution was aspirated and 150 uL dimethyl sulfoxide was added to release the formed formazan crystals from the living cells mitochondria into the solution. • 6. After moderated shaking for 3 min, absorbance was measured at 490 nm using microplate reader.

A375 cells = experiment: Cell growth inhibition assay (MTT), A375 cells; type: cell-based; details: Homo sapiens, A-375, 72 h
Procedure: as §1

TNF-α = experiment: Inhibition of TNF-α expression, LPS-stimulated spleen cells, ELISA; details: Mus musculus, 24 h, read-out: Inhibition of TNF-α expression
Procedure: Take spleens of BALB/c gene reported mice, cultured in RPMI1640 medium (HyClone). Spleen was ground into single cell suspension, added red blood cell lysis buffer (sigma) to suspension, for cracking the red blood cells • 2. […] Dissolved compounds with DMSO and diluted with RPMI1640 medium containing 10% serum, diluted to a final concentration of 200 nM. • 4. Cells were added to 96 well plates, every hole was 100 μL. […] Each compound and control is three-hole wells. • 5. Cultured at 37° C. for 24 h. • 6. […] Using ELISA (enzyme-linked immunosorbent assay) technique for the determination of the amount of TNF-α in the 24 hours.
(§2) Control was DMSO and its concentration was same as the final concentration of test compounds.

[1] = system: HT29 human colon cancer cells xenograft; experiment: In vivo anti-tumor efficacy in HT29 tumor xenograft model; set-up: species or system BALB/c nude mice; details: 20 mg/kg, oral gavage once daily, after 16 days of treatment, HT29 xenograft in nude mice
Procedure: Female BALB/c nude mice of 5-6 week old were used for all the in vivo efficacy studies. Mice were injected with HT29 human colon cancer cells at 5×10^6 cells per 100 μL SFM into right flank. Tumor volumes were monitored by caliper measurement using the formula: tumor volume (mm^3)=(w^2×l)/2, where w=width and c=length in mm of the tumor. When the tumor volumes reached 150˜300 mm^3, mice were randomized to treatment groups (5˜10 mice per group) to receive compounds (20 mg/kg doses) or vehicle by oral gavage once daily for 16 days. The tumor volumes and body weight were measured every 2-3 days for data analysis. Tumor growth inhibition (TGI) and body weight changes were calculated compared to the vehicle treated groups.

Interleukin-4 (IL-4) = experiment: Inhibition of Interleukin-4 (IL-4), GFP+ of CD4+ spleen cells by flow cytometry; details: Mus musculus, 48 h, read-out: IL-4 inhibition
Procedure: Take spleens of BALB/c gene reported mice, culture in RPMI1640 medium (HyClone). • 2. Spleen will be ground into single cell suspension, add red blood cell lysis buffer (sigma) to suspension, for cracking the red blood cells. • 3. […] Dissolved compounds with DMSO and diluted with RPMI1640 medium containing 10% serum, diluted to a final concentration of 200 nM. • 5. […] After mixing, cells were added to 96 well plates, every hole is 100 μL. […] Each compound and control is three-hole wells, cultured at 37° C. for 48 h. • 6. After 48 h, the plates removed from the incubator and each well was collected in the flow tube (BD). • 7. Added cells to ice pre-cooling of PBS (phosphate buffer solution) solution to wash, and in 100 μL of PBS, join the fluorescent antibody CD4 0.5 μL, put in ice 15 min avoid light. • 8. After dyeing wash antibodies with the ice pre-cooling PBS solution. And prepare for flow cytometric detection. • 9. Using flow cytometry (BD FACS calibur) select the CD4+ cell populations, and detect GFP+ cells accounted for the percentage of CD4+ cells, to determine the impact of compounds on IL-4. • 10.
as §2

COLO 205 tumor xenograft = experiment: In vivo anti-tumor efficacy in COLO205 tumor xenograft model
[2] = 10 mg/kg QD by gavage x 18 days

SMILES	IC50 (HT29 cells) [nM]	IC50 (A375 cells) [nM]	further results
O=S(=O)(Nc1cc2scnc2c(F)c1Nc1ccc(I)cc1F)C1(CC(O)CO)CC1 (centres unmarked) [Compound 14, 1-(2,3-dihydroxypropyl)-N-(4-fluoro-5-((2-fluoro-4-iodophenyl)amino)benzo[d]thiazol-6-yl)cyclopropane-1-sulfonamide]	201	119	
O=S(=O)(Nc1cc2scnc2c(F)c1Nc1ccc(I)cc1F)C1CC1 [Compound 13, N-(4-fluoro-5-((2-fluoro-4-iodophenyl)amino)benzo[d]thiazol-6-yl)cyclopropanesulfonamide]	98.3	207	
O=S(=O)(Nc1cc2snnc2c(F)c1Nc1ccc(Br)cc1Cl)C1CC1 [Compound 23, N-(5-((4-bromo-2-chlorophenyl)amino)-4-fluorobenzo[d][1,2,3]thiadiazol-6-yl)cyclopropanesulfonamide]	3640	562	
O=C(NOCCO)c1cc2snnc2c(F)c1Nc1ccc(I)cc1F [Compound 17, 4-fluoro-5-((2-fluoro-4-iodophenyl)amino)-N-(2-hydroxyethoxy)benzo[d][1,2,3]thiadiazole-6-carboxamide]	1	0.24	inhibition at 0.1 µM (TNF-α): ≤ 40%; Tumor growth inhibition (TGI) [1]: 88.75%; inhibition at 0.1 µM (Interleukin-4 (IL-4)): ≤ 50%; Tumor growth inhibition vs vehicle control group (COLO 205 tumor xenograft; 5 mg/kg QD by gavage x 18 days): 95.35%
O=S(=O)(Nc1cc2snnc2c(F)c1Nc1ccc(I)cc1F)C1CC1 [Compound 21, N-(4-fluoro-5-((2-fluoro-4-iodophenyl)amino)benzo[d][1,2,3]thiadiazol-6-yl)cyclopropanesulfonamide]	1080	1770	
O=S(=O)(Nc1cc2scnc2c(F)c1Nc1ccc(Br)cc1Cl)C1CC1 [Compound 15, N-(5-((4-bromo-2-chlorophenyl)amino)-4-fluorobenzo[d]thiazol-6-yl)cyclopropanesulfonamide]	184	99.8	
Cn1cnc2c(F)c(Nc3ccc(Br)cc3Cl)c(C(=O)NOCCO)cc21 [AZD6244, reference compound]			Tumor growth inhibition (TGI) [1]: 48.3%
O=S(=O)(Nc1cc2snnc2c(F)c1Nc1ccc(Br)cc1Cl)C1(CC(O)CO)CC1 (centres unmarked) [Compound 24, N-(5-((4-bromo-2-chlorophenyl)amino)-4-fluorobenzo[d][1,2,3]thiadiazol-6-yl)-1-(2,3-dihydroxypropyl)cyclopropane-1-sulfonamide]	4370	992	
O=S(=O)(Nc1cc2ocnc2c(F)c1Nc1ccc(I)cc1F)C1(CC(O)CO)CC1 (centres unmarked) [Compound 6, 1-(2,3-dihydroxypropyl)-N-(4-fluoro-5-((2-fluoro-4-iodophenyl)amino)benzo[d]oxazol-6-yl)cyclopropane-1-sulfonamide]	78.3	103	
O=C(NOCCO)c1cc2snnc2c(F)c1Nc1ccc(Br)cc1F [Compound 43, 5-((4-bromo-2-fluorophenyl)amino)-4-fluoro-N-(2-hydroxyethoxy)benzo[d][1,2,3]thiadiazole-6-carboxamide]			inhibition at 0.1 µM (TNF-α): ≤ 40%; inhibition at 0.1 µM (Interleukin-4 (IL-4)): ≤ 50%
O=S(=O)(Nc1cc2ocnc2c(F)c1Nc1ccc(I)cc1F)C1CC1 [Compound 5, N-(4-fluoro-5-((2-fluoro-4-iodophenyl)amino)benzo[d]oxazol-6-yl)cyclopropanesulfonamide]	81.6	125	
O=C(NOCCO)c1cc2scnc2c(F)c1Nc1ccc(Br)cc1F [Compound 34, 4-fluoro-5-((2-fluoro-4-bromophenyl)amino)-N-(2-hydroxyethoxy)benzo[d]thiazol-6-carboxamide]			inhibition at 0.1 µM (TNF-α): ≤ 40%; inhibition at 0.1 µM (Interleukin-4 (IL-4)): ≤ 50%
O=S(=O)(Nc1cc2snnc2c(F)c1Nc1ccc(I)cc1F)C1(CC(O)CO)CC1 (centres unmarked) [Compound 22, 1-(2,3-dihydroxypropyl)-N-(4-fluoro-5-((2-fluoro-4-iodophenyl)amino)benzo[d][1,2,3]thiadiazol-6-yl)cyclopropane-1-sulfonamide]	2620	1160	
O=C(NOCCO)c1cc2ocnc2c(F)c1Nc1ccc(Br)cc1F [Compound 25, 4-fluoro-5-((2-fluoro-4-bromophenyl)amino)-N-(2-hydroxyethoxy)benzo[d]oxazole-6-carboxamide]			inhibition at 0.1 µM (TNF-α): ≤ 40%; inhibition at 0.1 µM (Interleukin-4 (IL-4)): ≤ 50%
Cn1cnc2c(F)c(Nc3ccc(Br)cc3Cl)c(C(=O)NOCCO)cc21 [Reference compound 1, reference compound]			Tumor growth inhibition vs vehicle control group (COLO 205 tumor xenograft; [2]): 72.80%

Further lines, with some results ahead:

IC50 (HT29 cells) [nM]	IC50 (A375 cells) [nM]	SMILES	further results
2.3	0.85	O=C(NOCCO)c1cc2ocnc2c(F)c1Nc1ccc(I)cc1F [Compound 1, 4-fluoro-5-((2-fluoro-4-iodophenyl)amino)-N-(2-hydroxyethoxy)benzo[d]oxazole-6-carboxamide]	inhibition at 0.1 µM (TNF-α): ≤ 40%; Tumor growth inhibition (TGI) [1]: 55.1%; inhibition at 0.1 µM (Interleukin-4 (IL-4)): ≤ 50%; Tumor growth inhibition vs vehicle control group (COLO 205 tumor xenograft; [2]): 91.22%
8.1	4.6	O=C(NOCC(O)CO)c1cc2ocnc2c(F)c1Nc1ccc(I)cc1F (centres unmarked) [Compound 2, N-(2,3-dihydroxypropoxy)-4-fluoro-5-((2-fluoro-4-iodophenyl)amino)benzo[d]oxazole-6-carboxamide]	
687	97.3	O=C(NOCC(O)CO)c1cc2snnc2c(F)c1Nc1ccc(Br)cc1Cl (centres unmarked) [Compound 20, 5-((4-bromo-2-chlorophenyl)amino)-N-(2,3-dihydroxypropoxy)-4-fluorobenzo[d][1,2,3]thiadiazole-6-carboxamide]	
738	174	O=C(NOCC(O)CO)c1cc2scnc2c(F)c1Nc1ccc(Br)cc1Cl (centres unmarked) [Compound 12, N-(2,3-dihydroxypropoxy)-4-fluoro-5-((4-bromo-2-chlorophenyl)amino)benzo[d]thiazole-6-carboxamide]	
1310	151	O=S(=O)(Nc1cc2scnc2c(F)c1Nc1ccc(Br)cc1Cl)C1(CC(O)CO)CC1 (centres unmarked) [Compound 16, N-(5-((4-bromo-2-chlorophenyl)amino)-4-fluorobenzo[d]thiazol-6-yl)-1-(2,3-dihydroxypropyl)cyclopropane-1-sulfonamide]	
1090	738	O=S(=O)(Nc1cc2ocnc2c(F)c1Nc1ccc(Br)cc1Cl)C1(CC(O)CO)CC1 (centres unmarked) [Compound 8, N-(5-((4-bromo-2-chlorophenyl)amino)-4-fluorobenzo[d]oxazol-6-yl)-1-(2,3-dihydroxypropyl)cyclopropane-1-sulfonamide]	
283	239	O=S(=O)(Nc1cc2ocnc2c(F)c1Nc1ccc(Br)cc1Cl)C1CC1 [Compound 7, N-(5-((4-bromo-2-chlorophenyl)amino)-4-fluorobenzo[d]oxazol-6-yl)cyclopropanesulfonamide]	
138	97.5	O=C(NOCC(O)CO)c1cc2ocnc2c(F)c1Nc1ccc(Br)cc1Cl (centres unmarked) [Compound 4, 5-((4-bromo-2-chlorophenyl)amino)-N-(2,3-dihydroxypropoxy)-4-fluorobenzo[d]oxazole-6-carboxamide]	
66.4	16.8	O=C(NOCC(O)CO)c1cc2snnc2c(F)c1Nc1ccc(I)cc1F (centres unmarked) [Compound 18, N-(2,3-dihydroxypropoxy)-4-fluoro-5-((2-fluoro-4-iodophenyl)amino)benzo[d][1,2,3]thiadiazole-6-carboxamide]	
65.7	49.4	O=C(NOCCO)c1cc2snnc2c(F)c1Nc1ccc(Br)cc1Cl [Compound 19, 5-((4-bromo-2-chlorophenyl)amino)-4-fluoro-N-(2-hydroxyethoxy)benzo[d][1,2,3]thiadiazole-6-carboxamide]	inhibition at 0.1 µM (TNF-α): ≤ 40%; Tumor growth inhibition (TGI) [1]: 50.9%; inhibition at 0.1 µM (Interleukin-4 (IL-4)): ≤ 50%; Tumor growth inhibition vs vehicle control group (COLO 205 tumor xenograft; [2]): 86.22%
18.5	11.2	O=C(NOCC(O)CO)c1cc2scnc2c(F)c1Nc1ccc(I)cc1F (centres unmarked) [Compound 10, N-(2,3-dihydroxypropoxy)-4-fluoro-5-((2-fluoro-4-iodophenyl)amino)benzo[d]thiazole-6-carboxamide]	
51.2	61.4	O=C(NOCCO)c1cc2scnc2c(F)c1Nc1ccc(Br)cc1Cl [Compound 11, 5-((4-bromo-2-chlorophenyl)amino)-4-fluoro-N-(2-hydroxyethoxy)benzo[d]thiazole-6-carboxamide]	inhibition at 0.1 µM (TNF-α): ≤ 40%; Tumor growth inhibition (TGI) [1]: 68.51%; inhibition at 0.1 µM (Interleukin-4 (IL-4)): ≤ 50%; Tumor growth inhibition vs vehicle control group (COLO 205 tumor xenograft; [2]): 82.14%
51.8	61.3	O=C(NOCCO)c1cc2ocnc2c(F)c1Nc1ccc(Br)cc1Cl [Compound 3, 5-((4-bromo-2-chlorophenyl)amino)-4-fluoro-N-(2-hydroxyethoxy)benzo[d]oxazole-6-carboxamide]	inhibition at 0.1 µM (TNF-α): ≤ 40%; Tumor growth inhibition (TGI) [1]: 32.3%; inhibition at 0.1 µM (Interleukin-4 (IL-4)): ≤ 50%; Tumor growth inhibition vs vehicle control group (COLO 205 tumor xenograft; 20 mg/kg QD by gavage x 18 days): 47.11%
